# Source: patent US20110306547A1, “LHRH - ANTAGONISTS IN THE TREATMENT OF FERTILITY DISORDERS” (Zentaris GmbH, priority 1996, published 2011)
# Where a SMILES comes first, the peptide text is derived from it. [ ]: non-standard residue; d: D form. dPhe(4-Cl) = N[C@H](Cc1ccc(Cl)cc1)C(=O)O; d2Nal = N[C@H](Cc1ccc2ccccc2c1)C(=O)O; dCit = NC(=O)NCCC[C@@H](N)C(=O)O; d3Pal = N[C@H](Cc1cccnc1)C(=O)O
# System: patients undergoing COS/ART
# Assay: Phase II clinical trial of Cetrorelix in controlled ovarian stimulation / superovulation for assisted reproduction (COS/ART)
# Format: in vivo, human (patients)
# Protocol: The results of a phase II clinical trial are shown in Table I. A total of […] patients were treated. […] During multiple dosing, the mean days of Cetrorelix application is 6 days. 25 babies were born by the end of May 1996 (7 following multiple doses; 18 following single/dual doses). [table] […] [table] 238 patients were treated with Cetrorelix by subcutaneous injection of Cetrorelix […]-Lyophilisat. 134 patients were treated with multiple doses and 104 patients with single or dual doses. The multiple doses are 0.25 mg/day or higher. The single dose was 3 mg or higher. […] Multiple doses were applied for 3 to a maximum of 10 days dependent on follicular development.
# [1] = multiple dose schedule, daily s.c., 3-7/14 days, phase II dose finding
# [2] = single dose, posology 1 day, phase II dose finding
smiles,measurement,setting,value
CC(=O)N[C@H](Cc1ccc2ccccc2c1)C(=O)N[C@H](Cc1ccc(Cl)cc1)C(=O)N[C@H](Cc1cccnc1)C(=O)N[C@@H](CO)C(=O)N[C@@H](Cc1ccc(O)cc1)C(=O)N[C@H](CCCNC(N)=O)C(=O)N[C@@H](CC(C)C)C(=O)N[C@@H](CCCNC(=N)N)C(=O)N1CCC[C@H]1C(=O)N[C@H](C)C(N)=O [Cetrorelix] (Ac-[d2Nal][dPhe(4-Cl)][d3Pal]SY[dCit]LRP[dA]-NH2),premature LH surge (FIG. 1),FIG. 1,absolute prevention of any premature LH surge
same,pregnancies (number),"all phase II patients, both regimens",71 pregnancies
same,minimal effective dose (Dose/Day),[1],0.25 min. effect. dose mg
same,no effect dose (Dose/Day),[1],0.10 no effect. dose mg
same,premature LH surge,multiple doses of 0.25 mg/day or higher,No premature LH surge was seen in any patient
same,premature LH surge,single dose of 3 mg or higher,No premature LH surge was seen in any patient
same,minimal effective dose,[2],3 min. effective dose mg
same,no effect dose,[2],2 no effect. Dose mg
same,babies born by the end of May 1996,total,25
